ChEMBL document CHEMBL3865840, “Minimizing CYP2C9 Inhibition of Exposed-Pyridine NAMPT (Nicotinamide Phosphoribosyltransferase) Inhibitors” (J Med Chem, 2016)
Active and inactive are the calls of the source. The rule behind the calls is not given here.

Key:
[1] = Clearance in Sprague-Dawley rat at 1 mg/kg, iv; format: ADME, organism-based; conditions: in vivo
[2] = AUC in Beagle dog at 3 mg/kg, po; format: ADME, organism-based, Canis lupus familiaris; conditions: in vivo
[3] = Protein binding in dog plasma at 5 uM after 4 hrs by rapid equilibrium dialysis based LC-MS/MS analysis; format: ADME, cell-free, Canis lupus familiaris; conditions: read-out: PPB (converted)
Cytochrome P450 1A2 [4] = molecular target: T1, Cytochrome P450 1A2 (Homo sapiens, UniProt P05177); experiment: Reversible inhibition of CYP1A2 in human liver microsomes using […] as substrate in presence of NADPH by LC-MS/MS analysis; format: ADME
T1 sequence (P05177 whole entry): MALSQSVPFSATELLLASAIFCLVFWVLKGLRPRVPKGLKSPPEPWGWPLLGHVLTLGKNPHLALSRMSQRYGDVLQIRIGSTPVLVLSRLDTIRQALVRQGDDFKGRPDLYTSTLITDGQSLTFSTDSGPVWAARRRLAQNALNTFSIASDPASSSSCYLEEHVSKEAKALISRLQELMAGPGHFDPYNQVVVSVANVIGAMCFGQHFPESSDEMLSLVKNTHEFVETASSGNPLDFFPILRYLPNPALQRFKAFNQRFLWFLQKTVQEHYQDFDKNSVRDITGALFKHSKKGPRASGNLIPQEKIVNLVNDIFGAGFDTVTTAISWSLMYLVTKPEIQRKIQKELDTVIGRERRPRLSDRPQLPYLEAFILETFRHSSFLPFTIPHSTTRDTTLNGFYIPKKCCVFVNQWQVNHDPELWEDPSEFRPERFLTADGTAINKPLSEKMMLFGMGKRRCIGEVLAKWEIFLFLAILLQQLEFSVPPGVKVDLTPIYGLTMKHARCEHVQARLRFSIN

Cytochrome P450 2C19 [5] = molecular target: T2, Cytochrome P450 2C19 (Homo sapiens, UniProt P33261); experiment: Time dependent inhibition of CYP2C19 in human liver microsomes assessed as substrate AUC shift; format: ADME; set-up: scale not given: the % may be the effect or the level left
[6] = Octanol-aqueous phosphate buffer distribution coefficient, log D of the compound at pH 7.4 after 1 hr by LC/MS/MS analysis; format: physicochemical
[7] = Half life in Beagle dog at 0.5 mg/kg, iv; format: ADME, organism-based, Canis lupus familiaris; conditions: in vivo
Cytochrome P450 2C9 [8] = molecular target: T3, Cytochrome P450 2C9 (Homo sapiens, UniProt P11712); experiment: Time dependent inhibition of CYP2C9 in human liver microsomes assessed as substrate AUC shift; format: ADME; set-up: scale not given: the % may be the effect or the level left
Cytochrome P450 2D6 [9] = molecular target: T4, Cytochrome P450 2D6 (Homo sapiens, UniProt P10635); experiment: Time dependent inhibition of CYP2D6 in human liver microsomes assessed as substrate AUC shift; format: ADME; set-up: scale not given: the % may be the effect or the level left
Cytochrome P450 2C19 [10] = molecular target: T2, Cytochrome P450 2C19; experiment: Reversible inhibition of CYP2C19 in human liver microsomes using […] as substrate in presence of NADPH by LC-MS/MS analysis; format: ADME
Cytochrome P450 3A4 [11] = molecular target: T5, Cytochrome P450 3A4 (Homo sapiens, UniProt P08684); experiment: Time dependent inhibition of CYP3A4 in human liver microsomes assessed as substrate AUC shift using testosterone as substrate; format: ADME; set-up: scale not given: the % may be the effect or the level left
Mus musculus [12] = experiment: Increase in body weight in human HT1080 tumor bearing nude NCR mouse cachexia model at 25 to 50 mg/kg administered via oral gavage twice per day for 5 consecutive days measured up to 20 days; format: functional, organism-based
[13] = Cmax in Beagle dog at 3 mg/kg, po; format: ADME, organism-based, Canis lupus familiaris; set-up: dose 3 mg/kg, route oral; conditions: in vivo
Cytochrome P450 2D6 [14] = molecular target: T4, Cytochrome P450 2D6; experiment: Reversible inhibition of CYP2D6 in human liver microsomes using […] as substrate in presence of NADPH by LC-MS/MS analysis; format: ADME
[15] = Cmax in Sprague-Dawley rat at 5 mg/kg, po; format: ADME, organism-based; set-up: dose 5 mg/kg, route oral; conditions: in vivo
Cytochrome P450 3A4 [16] = molecular target: T5, Cytochrome P450 3A4; experiment: Reversible inhibition of CYP3A4 in human liver microsomes using midazolam as substrate in presence of NADPH by LC-MS/MS analysis; format: ADME
[17] = Oral bioavailability in Beagle dog at 3 mg/kg; format: ADME, organism-based, Canis lupus familiaris; conditions: in vivo
[18] = Volume of distribution at steady state in Sprague-Dawley rat at 1 mg/kg, iv; format: ADME, organism-based; conditions: in vivo, read-out: Vdss
[19] = Clearance in Beagle dog at 0.5 mg/kg, iv; format: ADME, organism-based, Canis lupus familiaris; conditions: in vivo
[20] = Protein binding in rat plasma at 5 uM after 4 hrs by rapid equilibrium dialysis based LC-MS/MS analysis; format: ADME, cell-free; conditions: read-out: PPB (converted)
Cytochrome P450 3A4 [21] = molecular target: T5, Cytochrome P450 3A4; experiment: Time dependent inhibition of CYP3A4 in human liver microsomes assessed as substrate AUC shift using midazolam as substrate; format: ADME; set-up: scale not given: the % may be the effect or the level left
[22] = Half life in Sprague-Dawley rat at 1 mg/kg, iv; format: ADME, organism-based; conditions: in vivo
Cytochrome P450 1A2 [23] = molecular target: T1, Cytochrome P450 1A2; experiment: Time dependent inhibition of CYP1A2 in human liver microsomes assessed as substrate AUC shift; format: ADME; set-up: scale not given: the % may be the effect or the level left
Mus musculus [24] = experiment: Toxicity in nude NCR mouse xenografted with human HT1080 cells assessed as change in body weight at 25 to 50 mg/kg administered via oral gavage twice per day for 5 consecutive days measured up to 20 days; format: organism-based, HT-1080; conditions: in vivo, 480 h
[25] = Protein binding in mouse plasma at 5 uM after 4 hrs by rapid equilibrium dialysis based LC-MS/MS analysis; format: ADME, cell-free; conditions: read-out: PPB (converted)
[26] = Time at which plasma concentration stays above plasma protein binding corrected human HT1080 cells IC50 in nude NCR mouse at 25 mg/kg, po bid administered via gavage; format: ADME, organism-based, HT-1080; conditions: in vivo
Cytochrome P450 2C9 [27] = molecular target: T3, Cytochrome P450 2C9
[28] = Protein binding in human plasma at 5 uM after 4 hrs by rapid equilibrium dialysis based LC-MS/MS analysis; format: ADME, cell-free; conditions: read-out: PPB (converted)
[29] = Apparent permeability from basolateral to apical side in MDCK cells at 10 uM by LC/MS/MS analysis; format: ADME, cell-based, Canis lupus familiaris; conditions: dog
[30] = Kinetic solubility of the compound in PBS at 200 uM at pH 7.4 after 24 hrs by liquid chromatography-chemiluminescence nitrogen detection assay; format: physicochemical; conditions: read-out: Kinetic_solubility
Cytochrome P450 3A4 [31] = molecular target: T5, Cytochrome P450 3A4; experiment: Reversible inhibition of CYP3A4 in human liver microsomes using testosterone as substrate in presence of NADPH by LC-MS/MS analysis; format: ADME
[32] = Oral bioavailability in Sprague-Dawley rat at 5 mg/kg; format: ADME, organism-based; conditions: in vivo
[33] = Volume of distribution at steady state in Beagle dog at 0.5 mg/kg, iv; format: ADME, organism-based, Canis lupus familiaris; conditions: in vivo, read-out: Vdss
[34] = Protein binding in cynomolgus monkey plasma at 5 uM after 4 hrs by rapid equilibrium dialysis based LC-MS/MS analysis; format: ADME, cell-free, Macaca fascicularis; conditions: read-out: PPB (converted)
[35] = Thermodynamic solubility of the compound in PBS at pH 7.4 after 24 hrs by liquid chromatography-chemiluminescence nitrogen detection assay; format: physicochemical; conditions: read-out: Therm_solubility
[36] = Apparent permeability from apical to basolateral side in MDCK cells at 10 uM by LC/MS/MS analysis; format: ADME, cell-based, Canis lupus familiaris; conditions: dog
HT-1080 = experiment: Antitumor activity against human HT1080 cells xenografted in nude NCR mouse assessed as tumor growth inhibition at 25 to 50 mg/kg administered via oral gavage twice per day for 5 consecutive days measured up to 20 days; format: functional, organism-based
[37] = AUC in Sprague-Dawley rat at 5 mg/kg, po; format: ADME, organism-based; conditions: in vivo
Cytochrome P450 3A4 [38] = molecular target: T5, Cytochrome P450 3A4; experiment: Inhibition of CYP3A4 in human liver microsomes using testosterone as substrate in presence of NADPH by LC-MS/MS analysis; format: ADME
Cytochrome P450 2D6 [39] = molecular target: T4, Cytochrome P450 2D6
Cytochrome P450 2C9 [40] = molecular target: T3, Cytochrome P450 2C9; remark: listed apart in the source
Cytochrome P450 3A4 [41] = molecular target: T5, Cytochrome P450 3A4
Cytochrome P450 2C19 [42] = molecular target: T2, Cytochrome P450 2C19
Cytochrome P450 1A2 [43] = molecular target: T1, Cytochrome P450 1A2

T5 sequence (P08684 whole entry): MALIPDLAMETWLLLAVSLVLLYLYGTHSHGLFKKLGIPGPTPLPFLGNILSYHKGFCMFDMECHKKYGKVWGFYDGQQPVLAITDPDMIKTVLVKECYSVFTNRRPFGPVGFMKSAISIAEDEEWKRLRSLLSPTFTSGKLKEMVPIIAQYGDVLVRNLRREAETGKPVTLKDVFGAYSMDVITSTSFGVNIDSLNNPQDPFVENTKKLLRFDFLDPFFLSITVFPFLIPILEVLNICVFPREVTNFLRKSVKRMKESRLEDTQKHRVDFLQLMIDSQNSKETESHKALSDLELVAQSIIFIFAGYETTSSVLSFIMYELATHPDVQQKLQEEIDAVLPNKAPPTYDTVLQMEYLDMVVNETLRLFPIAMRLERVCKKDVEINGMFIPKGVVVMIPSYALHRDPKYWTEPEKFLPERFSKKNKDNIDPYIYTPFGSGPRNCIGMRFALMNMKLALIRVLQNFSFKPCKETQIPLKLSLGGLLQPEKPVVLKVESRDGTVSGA
T4 sequence (P10635 whole entry): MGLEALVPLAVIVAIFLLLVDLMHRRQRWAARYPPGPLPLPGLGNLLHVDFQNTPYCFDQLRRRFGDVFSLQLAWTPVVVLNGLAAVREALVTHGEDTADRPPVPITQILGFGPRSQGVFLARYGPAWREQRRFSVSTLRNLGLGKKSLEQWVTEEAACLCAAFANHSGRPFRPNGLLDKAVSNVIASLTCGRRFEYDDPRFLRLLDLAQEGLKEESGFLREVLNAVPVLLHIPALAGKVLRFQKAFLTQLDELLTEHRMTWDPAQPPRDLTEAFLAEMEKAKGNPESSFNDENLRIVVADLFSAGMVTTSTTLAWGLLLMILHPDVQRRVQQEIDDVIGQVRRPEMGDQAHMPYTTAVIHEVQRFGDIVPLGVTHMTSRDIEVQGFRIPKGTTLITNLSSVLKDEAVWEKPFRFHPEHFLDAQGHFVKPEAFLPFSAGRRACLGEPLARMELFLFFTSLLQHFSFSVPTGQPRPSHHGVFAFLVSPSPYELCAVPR
T2 sequence (P33261 whole entry): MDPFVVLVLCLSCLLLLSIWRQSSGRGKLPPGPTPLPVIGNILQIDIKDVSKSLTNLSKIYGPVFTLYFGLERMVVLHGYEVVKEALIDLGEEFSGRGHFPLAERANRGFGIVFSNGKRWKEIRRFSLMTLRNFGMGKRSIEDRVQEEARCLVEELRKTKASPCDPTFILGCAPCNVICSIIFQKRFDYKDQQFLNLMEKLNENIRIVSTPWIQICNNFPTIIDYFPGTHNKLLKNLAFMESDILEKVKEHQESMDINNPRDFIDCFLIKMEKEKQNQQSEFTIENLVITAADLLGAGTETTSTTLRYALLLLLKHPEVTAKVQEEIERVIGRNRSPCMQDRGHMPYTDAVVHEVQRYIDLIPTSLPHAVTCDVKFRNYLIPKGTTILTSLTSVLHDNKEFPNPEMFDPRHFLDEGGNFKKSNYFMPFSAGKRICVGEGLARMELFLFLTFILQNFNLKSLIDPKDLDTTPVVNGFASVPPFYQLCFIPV
T3 sequence (P11712 whole entry): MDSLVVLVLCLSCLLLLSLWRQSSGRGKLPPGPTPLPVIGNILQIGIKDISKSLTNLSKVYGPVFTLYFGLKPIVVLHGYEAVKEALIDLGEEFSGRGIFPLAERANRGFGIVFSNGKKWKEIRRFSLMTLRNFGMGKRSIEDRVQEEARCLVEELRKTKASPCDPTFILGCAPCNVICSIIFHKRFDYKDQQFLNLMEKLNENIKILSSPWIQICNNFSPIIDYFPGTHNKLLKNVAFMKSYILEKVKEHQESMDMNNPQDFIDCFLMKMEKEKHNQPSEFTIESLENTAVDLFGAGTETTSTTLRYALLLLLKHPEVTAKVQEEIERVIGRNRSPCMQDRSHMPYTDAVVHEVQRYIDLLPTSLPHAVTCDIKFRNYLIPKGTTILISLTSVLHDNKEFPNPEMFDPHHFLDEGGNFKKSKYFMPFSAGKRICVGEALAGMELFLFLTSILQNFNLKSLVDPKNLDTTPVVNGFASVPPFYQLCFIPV

CC1(OC(=O)N2CCC3(CC2)C[C@@H]3CNC(=O)N2Cc3ccncc3C2)COC1
clearance [1]: 110 mL/min/kg | AUC [2]: 10.5 µM·h | fraction unbound at 4 h, 5 µM [3]: 0.34 | IC50 (Cytochrome P450 1A2 [4]): > 10 µM | Activity (Cytochrome P450 2C19 [5]): < 15% | logD at 1 h [6]: 1.2 | half-life [7]: 1.2 h | Activity (Cytochrome P450 2C9 [8]): < 15% | Activity (Cytochrome P450 2D6 [9]): < 15% | IC50 (Cytochrome P450 2C19 [10]): > 10 µM | Activity (Cytochrome P450 3A4 [11]): < 15% | Activity (Mus musculus [12]): Active | Cmax [13]: 4800 nM | IC50 (Cytochrome P450 2D6 [14]): > 10 µM | Cmax [15]: 640 nM | IC50 (Cytochrome P450 3A4 [16]): > 10 µM | bioavailability [17]: 86% | Vd [18]: 9 L/kg | clearance [19]: 10.8 mL/min/kg | fraction unbound at 4 h, 5 µM [20]: 0.44 | Activity (Cytochrome P450 3A4 [21]): < 15% | half-life [22]: 1.4 h | Activity (Cytochrome P450 1A2 [23]): < 15% | Activity (Mus musculus [24]): Non-Toxic | fraction unbound at 4 h, 5 µM [25]: 0.47 | Time [26]: 20 h | IC50 (Cytochrome P450 2C9 [27]): > 10 µM | fraction unbound at 4 h, 5 µM [28]: 0.44 | Papp B→A at 10 µM [29]: 12 ×10⁻⁶ cm/s | solubility kinetic at 24 h, 200 µM [30]: > 0.1 mM | IC50 (Cytochrome P450 3A4 [31]): > 10 µM | bioavailability [32]: 29% | Vd [33]: 0.8 L/kg | fraction unbound at 4 h, 5 µM [34]: 0.46 | solubility thermodynamic at 24 h [35]: > 6 mM | Papp A→B at 10 µM [36]: 8.8 ×10⁻⁶ cm/s | TGI (HT-1080): Active | AUC [37]: 0.55 µM·h

O=C(NCc1ccc(S(=O)(=O)c2cccc(C(F)(F)F)c2)cc1)c1cnc2[nH]ncc2c1
IC50 (Cytochrome P450 3A4 [38]): 7.9 µM | IC50 (Cytochrome P450 2D6 [39]): > 10 µM | IC50 (Cytochrome P450 2C9 [40]): 4.8 µM | IC50 (Cytochrome P450 3A4 [41]): 9 µM | IC50 (Cytochrome P450 2C9 [27]): 0.07 µM | IC50 (Cytochrome P450 2C19 [42]): 6.5 µM | IC50 (Cytochrome P450 1A2 [43]): > 10 µM
